# Where two headings read alike, the source gives them in different places.
# Experiments:
# [1] = test system: Escherichia coli BAA-2452; test: Antibacterial MIC assay, serial dilution; format: cell-based; conditions: BAA2452, read-out: MIC Escherichia coli BAA-2452
# [2] = test system: Methicillin resistant S. aureus (MRSA) USA300; test: Antibacterial MIC assay, serial dilution; format: cell-based, Staphylococcus aureus; conditions: for Selectivity index (CC50/MIC) MRSA USA300: CC50 Vero cells / MIC; for MIC: Staphylococcus aureus, read-out: MIC Methicillin resistant S. aureus (MRSA) USA300
# [3] = test system: Vancomycin resistant E. faecalis NR-31972 (VRE); test: Antibacterial MIC assay, serial dilution; format: cell-based, Enterococcus faecalis; conditions: for Selectivity index (CC50/MIC) VRE NR-31972: CC50 Vero cells / MIC; for MIC: Enterococcus faecalis, VRE, 24 h, read-out: MIC Vancomycin resistant E. faecalis NR-31972 (VRE)
# Method: (§1) Media and solutions were autoclaved or sterile filtered prior to use and mani pulations were carri ed out in a laminar flow hood. Antibacterial t esting was performed in polypropylene 96-well flat bottom plates. The minimal inhibitory concentration of blasticidin S (1) hydrochloride, methyl ester (3) trihydrochloride, P10 (2) tri-T FA , phenet hyl amide (4) tri -T FA , an d blastimidines M 19– 22, A, 29–32, P 37–40, and C 43–46 (salt forms as described in the te xt) were assessed against Staphylococcus aureus ΔNorA, S. aureus ATCC 6538P, methicillin-resistant S. aureus (MRSA) ATCC 43300, Enterococcus faecalis ATCC 29212, vancomycin- resistant Enterococcus, Klebsiella pneumoniae ATCC 29665, Pseudomonas aeruginosa,and Acinetobacter baumannii ATCC 17978 using serial dilutions. Doxycycline (Gold Bio) as a positive control and the vehicle as a negative control. Stock solutions of each compound were prepared at 2.56 mg/mL in 50% DMSO/water and serially diluted in 50% DMSO/water to create master plates. From the master plates, 10 μ L o f each dilution was applied to test plates using a Bravo automated liquid transfer system (Agilent).
# (§2) Bacteria previously grown overnight (37 °C, 120–200 RPM), in LB broth were diluted to an OD600 of 0.05 in cation-adjusted Mueller-Hinton broth (CAMHB), grown to an OD600 of ~0.5, and diluted to an OD600 of 0.004 in CAMHB . These diluted cultures were applied to the test plates (190 μL per test well) resulting in final concentrations of the test compounds of 128–1 μg/ m L.
# (§3) Growth controls (wells with inoculated media but no vehicle or test compounds) were included to assess any potential toxicity from the vehicle. Th e plates were in cubated at 37 °C for 16–18 h, except fo r VRE and E. faecalis, which w ere in cub ated at 37 °C fo r 24 h. Inh ibition was determined by measuring the optical density at 600 nm (OD60 0) with a Cytation 3 pl ate read er (BioTek). The optical density measurem ents were no rmalized to the positive and negative controls and the vehicle and growth controls were compared and found to b e indistinguishable, indicating no toxicity from […]
# (§4) the vehicle used. The MIC was the lowest concentration that inhibited >90% of growth. Two biological replicates were performed in duplicate. MIC values are reported as a range from […]
# [4] = test system: Enterococcus faecalis ATCC 29212; test: Antibacterial MIC assay, serial dilution; format: cell-based; conditions: for Selectivity index (CC50/MIC) E. faecalis 29212: CC50 Vero cells / MIC; for MIC: Enterococcus faecalis, ATCC 29112 / ATCC 29212, 24 h, read-out: MIC E. faecalis ATCC 29112
# Method: as §1, §2, §3, §4
# [5] = test system: Vancomycin resistant Enterococcus faecium NR-31909 (VRE); test: Antibacterial MIC assay, serial dilution; format: cell-based; conditions: for Selectivity index (CC50/MIC) VRE NR-31909: CC50 Vero cells / MIC; for MIC: Enterococcus faecium, VRE, 24 h, read-out: MIC Vancomycin resistant Enterococcus faecium NR-31909 (VRE)
# Method: as §1, §2, §3, §4
# Pseudomonas aeruginosa = test: Antibacterial MIC assay, serial dilution; format: cell-based; conditions: for Selectivity index (CC50/MIC) P. aeruginosa: CC50 Vero cells / MIC; for MIC: Pseudomonas aeruginosa, range from biological replicates, read-out: MIC P. aeruginosa
# Method: as §1, §2, §3, §4
# [6] = test system: Acinetobacter baumannii ATCC 17978; test: Antibacterial MIC assay, serial dilution; format: cell-based; conditions: ATCC17978, range from biological replicates
# Method: as §1, §2, §3, §4
# [7] = test system: Klebsiella pneumoniae ATCC 29665; test: Antibacterial MIC assay, serial dilution; format: cell-based; conditions: for Selectivity index (CC50/MIC) K. pneumoniae: CC50 Vero cells / MIC; for MIC: Klebsiella pneumoniae, ATCC29665, range from biological replicates, read-out: MIC K. pneumoniae ATCC-29665
# Method: as §1, §2, §3, §4
# MRSA ATCC 43300 = test: Antibacterial MIC assay, serial dilution; format: cell-based, Staphylococcus aureus; conditions: for Selectivity index (CC50/MIC) MRSA 43300: CC50 Vero cells / MIC; for MIC: Staphylococcus aureus, read-out: MIC MRSA ATCC 43300
# Method: as §1, §2, §3, §4
# S. aureus ΔNorA = test: Antibacterial MIC assay, serial dilution; format: cell-based, Staphylococcus aureus; conditions: for Selectivity index (CC50/MIC) S. aureus ΔNorA: CC50 Vero cells / MIC; for MIC: Staphylococcus aureus, read-out: MIC S. aureus ∆NorA
# Method: as §1, §2, §3, §4
# S. aureus ATCC 6538P = test: Antibacterial MIC assay, serial dilution; format: cell-based, Staphylococcus aureus; conditions: for Selectivity index (CC50/MIC) S. aureus 6538P: CC50 Vero cells / MIC; for MIC: Staphylococcus aureus, ATCC 6538P / ATCC 6539P, read-out: MIC S. aureus ATCC 6539P
# Method: as §1, §2, §3, §4
# [8] = test system: Methicillin resistant Staphylococcus epidermidis (MRSE) ATCC 35984 NRS101; test: Antibacterial MIC assay, serial dilution; format: cell-based; conditions: for Selectivity index (CC50/MIC) MRSE 35984: CC50 Vero cells / MIC; for MIC: Staphylococcus epidermidis, read-out: MIC Methicillin resistant Staphylococcus epidermidis (MRSE) ATCC 35984 NRS101
# [9] = Cytotoxicity assay (MTS/PMS); format: cell-based; conditions: monkey, 24 h treatment, MTS/PMS, average of three biological replicates, read-out: CC50 against Vero cells
# Method: The potential cytotoxic eff ect of the test compounds was investigated using Vero cells (monkey kidney epitheli al cells) following est ablished protocols.3 Briefly, Vero cells were plated into 96-well plates supplemented with Dulbecco's Modified Eagle Medium (DMEM) containing 10% fetal bovine serum (FBS). The cells were placed in a humidified 37 °C environment for incubation with 5% CO₂ for 24 h to allow proper adherence and growth. Following the incubation period, the culture medium was replaced with fresh DMEM containing serial dilutions of the test compounds, while the v ehicle alon e w as used as a negative control. The treated cells were incubated for an additional 24 h. To assess cell viability, the MTS/PMS reagent was added to each well and incubat ed for 4 h. A microplate reader (S ynergy H1, BioTek, USA) was used to m easure absorbance at 490 nm. Al l experiments wer e cond ucted usingthree biologi cal replicates .
# Ta b l e S2. CC50 valuesa (µg/mL) against Vero cells […]
# aValues at which the cell viability (normalized to vehicle control) was 50%. […]
# [10] = Vero cells (monkey kidney epithelial cells)
SMILES,MIC [1],Selectivity index (CC50/MIC) MRSA USA300 [2],MIC [2],Selectivity index (CC50/MIC) VRE NR-31972 [3],MIC [3],Selectivity index (CC50/MIC) E. faecalis 29212 [4],MIC [4],Selectivity index (CC50/MIC) VRE NR-31909 [5],MIC [5],Selectivity index (CC50/MIC) P. aeruginosa (Pseudomonas aeruginosa),MIC (Pseudomonas aeruginosa),MIC [6],Selectivity index (CC50/MIC) K. pneumoniae [7],MIC [7],Selectivity index (CC50/MIC) MRSA 43300 (MRSA ATCC 43300),MIC (MRSA ATCC 43300),Selectivity index (CC50/MIC) S. aureus ΔNorA (S. aureus ΔNorA),MIC (S. aureus ΔNorA),Selectivity index (CC50/MIC) S. aureus 6538P (S. aureus ATCC 6538P),MIC (S. aureus ATCC 6538P),further results
"COC(=O)[C@H]1O[C@@H](n2ccc(N)nc2=O)C=C[C@@H]1NC(=O)C[C@@H](N)CCN(C)C(=N)N [Blastimidine M1, blasticidin S methyl ester]",8 µg/mL,3.6,8 µg/mL,0.9,32 µg/mL,1.8,16 µg/mL,0.4,64 µg/mL,0.4,64 µg/mL,128 µg/mL,0.4,64 µg/mL,1.3,16 to 32 µg/mL,0.3,64 to 128 µg/mL,1.3,16 to 32 µg/mL,"Selectivity index (CC50/MIC) MRSE 35984 [8]: 1.8; MIC [8]: 16 µg/mL; CC50 at 24 h [9, 10]: 28 µg/mL"
COC(=O)[C@H]1O[C@@H](n2ccc(NC(=O)c3ccc(N)cc3)nc2=O)C=C[C@@H]1NC(=O)C[C@@H](N)CCN(C)C(=N)N [Blastimidine M2],32 µg/mL,16,8 µg/mL,4.0,32 µg/mL,16,8 µg/mL,1.0,128 µg/mL,<1.0,> 128 µg/mL,> 128 µg/mL,2.0,64 µg/mL,7.9,16 µg/mL,5.9,16 to 32 µg/mL,7.9,16 µg/mL,Selectivity index (CC50/MIC) MRSE 35984 [8]: 7.9; MIC [8]: 16 µg/mL; CC50 at 24 h [9]: 126 µg/mL
COC(=O)[C@H]1O[C@@H](n2ccc(NC(=O)c3ccc(NC(C)=O)cc3)nc2=O)C=C[C@@H]1NC(=O)C[C@@H](N)CCN(C)C(=N)N [Blastimidine M4],64 µg/mL,3.3,64 µg/mL,3.3,64 µg/mL,6.6,32 µg/mL,1.6,128 µg/mL,<1.6,> 128 µg/mL,> 128 µg/mL,6.6,32 µg/mL,6.6,32 µg/mL,6.6,32 µg/mL,9.9,16 to 32 µg/mL,"Selectivity index (CC50/MIC) MRSE 35984 [8]: 3.3; MIC [8]: 64 µg/mL; CC50 at 24 h [9, 10]: 210 µg/mL"
